Measured values from patent US20230293535A1, “ERBB/BTK INHIBITORS” (Dizal (Jiangsu) Pharmaceutical Co., Ltd., priority 2018, published 2023).
Counter-ions that a name gives are not always drawn. Like-named read-outs stand apart in the source and are kept apart here.

Experiments:
[1] = system: human hepatocytes; test: In vitro human hepatocytes clearance assay; details: mixed gender human hepatocytes, incubation up to 100 min
[2] = system: DB cells; test: BTK (wt) cell proliferation, DB (CellTiter-Glo, 72 h); assay type: cell-based; details: DB cells, CellTiter-Glo, read-out: Non-BCR activated DB GI50;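 also: DB cells in 384-well plates given a dilution series of compound, viable cells read by ATP luminescence, growth expressed versus DMSO control after subtracting a time-zero plate reading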
Method: (§1) OCI-LY-10 at 3,750 cells/well, TMD-8 and Ri-1 at 2,000 cells/well, and DB at 1,250 cells/well, respectively, were sorted into 384-well plates in RPMI1640 medium with 10% FBS. After overnight incubation, all cells were incubated with compound at a series of concentrations. Meanwhile, a duplicated plate of each cell line was prepared for measuring G0 value. The dosed plates were further incubated for 72 hours and the number of viable cells was measured by CellTiter-Glo® Luminescent Cell Viability Assay (Promega), a luminescent method for determining the number of viable cells through measurement of cellular ATP concentration using Envision plate reader (PerkinElmer). The percentage of proliferation was calculated as: % Proliferation = 100 × (G3 value of sample well - G0 value)/(G3 value of DMSO control - G0 value).

[3] = system: NCI-H1975 EGFR L858R/T790M cells; test: Cell proliferation, NCI-H1975 EGFR L858R/T790M (CellTiter-Glo, 72 h); assay type: cell-based; details: NCI-H1975, 72 h proliferation, read-out: EGFR L858R and T790M mutation GI50;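 also: viable cells quantified by luciferase-based ATP luminescence, proliferation expressed relative to DMSO-treated wells (100%) after subtracting a parallel plate read at the time of dosing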
Method: (§2) WT or mutant cells were seeded in 384 well plates at appropriate concentrations with corresponding growth media supplemented with 10% FBS, for each experiment, identical plates were prepared in duplicates, and the plates were incubated overnight. On the next day, one of each duplicated plates was dosed with tested compounds at a series of concentrations, and another one of the duplicated plate was analysied for G0 value. The dosed plates were incubate for another 72 h at 37° C. with 5% CO2 and the number of viable cells in each well of the G0 plates or the dosed plates were measured by CellTiter-Glo® Luminescent Cell Viability Assay (Promega). This assay is a luminescent method for determining the number viable cells through measurement of cellular ATP concentration by detection of luciferase activity. Detection reagents (15 µl) was dispensed into per well, and the plates were incubate for 30 min at room temperature. Then, the luminescence in each well was measured using the Envision plate reader (PerkinElmer). The percentage of proliferation was calculated based on the formula: %Proliferation= 100 × (G3 value of sample well-Go value)/(G3 value of DMSO control-Go value).

[4] = system: Ba/F3 EGFR ASV ins cells; test: Cell proliferation, Ba/F3 EGFR ASV ins (CellTiter-Glo, 72 h); assay type: cell-based; details: Ba/F3 EGFR ASV ins, 72 h proliferation, read-out: EGFR Exon20 ASV insertion GI50;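 also: IL3-independent Ba/F3 cells transduced with EGFR V769_D770insASV, cellular ATP luminescence after compound exposure, growth relative to DMSO control with the day-0 baseline reading subtracted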
Method: as §2

[5] = target: T1, EGFR L858R&T790M (Homo sapiens, UniProt P00533, L858R/T790M); test: EGFR L858R and T790M cellular phosphorylation inhibition in NCI-H1975 (MSD); assay type: cell-based; details: NCI-H1975 cells, 4 h compound, p-EGFR(Y1068)/total EGFR; read-out: EGFR L858R and T790M mutation IC50;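 also: phosphorylated and total EGFR detected by electrochemiluminescence, cells exposed to compound in medium containing 1% FBS at 37 °C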
T1 construct: host or cells: NCI-H1975
Method: (§3) One day before the test, WT or mutant cells were seeded in 96 well plates at appropriate concentrations with corresponding growth media supplemented with 1% FBS, and incubated overnight. The next day, tested compounds at a series of concentrations were added into each individual well of the plates, and the plates were incubated for 4 h at 37° C. with 5% CO2.
(§4) The EGFR (Y1068) phosphorylation level (activity) of cells in each well were then measured with MSD kit named “MULTI-SPOT®96 4-Spot HB Prototype EGFR Triplex [sequence]: pEGFR(Tyr1068),pEGFR(Tyr1173), Total EGFR” according to the manufacturer’s instruction (MESO SCALE DISCOVERY, Cat# N45ZB-1). The assay is an electrochemiluminescent method for determining both phosphorylated and total EGFR of cells with an MSD SECTOR® Imager and the ratio of p-EGFR/total EGFR can be generated by the machine. The Her2 (Y1248) phosphorylation level (activity) of cells in each well were measured with MSD Kit named “Phospho-ErbB2 (Tyr1248) Assay Whole Cell Lysate Kit” according to the manufacturer’s instruction (MESO SCALE DISCOVERY, Cat# K151CLD-3). The assay is an electrochemiluminescent method (MESO SCALE DISCOVERY) for determining both phosphorylated and total Her2 of cells with an MSD SECTOR® Imager and then the ratio of p-Her2/total Her2 can be generated by the machine.

[6] = target: T2, WT EGFR (Homo sapiens, UniProt P00533); test: WT EGFR cellular phosphorylation inhibition in A-431 (hEGF stimulated, MSD); assay type: cell-based; details: A431 cells, 4 h compound, then 100 ng/ml hEGF 10 min;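 also: electrochemiluminescence read-out of EGFR Tyr1068 phosphorylation expressed as ratio to total EGFR, cells kept in medium with 1% FBS, compounds tested as a concentration series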
T2 construct: host or cells: A-431
T2 sequence (P00533 25-1210): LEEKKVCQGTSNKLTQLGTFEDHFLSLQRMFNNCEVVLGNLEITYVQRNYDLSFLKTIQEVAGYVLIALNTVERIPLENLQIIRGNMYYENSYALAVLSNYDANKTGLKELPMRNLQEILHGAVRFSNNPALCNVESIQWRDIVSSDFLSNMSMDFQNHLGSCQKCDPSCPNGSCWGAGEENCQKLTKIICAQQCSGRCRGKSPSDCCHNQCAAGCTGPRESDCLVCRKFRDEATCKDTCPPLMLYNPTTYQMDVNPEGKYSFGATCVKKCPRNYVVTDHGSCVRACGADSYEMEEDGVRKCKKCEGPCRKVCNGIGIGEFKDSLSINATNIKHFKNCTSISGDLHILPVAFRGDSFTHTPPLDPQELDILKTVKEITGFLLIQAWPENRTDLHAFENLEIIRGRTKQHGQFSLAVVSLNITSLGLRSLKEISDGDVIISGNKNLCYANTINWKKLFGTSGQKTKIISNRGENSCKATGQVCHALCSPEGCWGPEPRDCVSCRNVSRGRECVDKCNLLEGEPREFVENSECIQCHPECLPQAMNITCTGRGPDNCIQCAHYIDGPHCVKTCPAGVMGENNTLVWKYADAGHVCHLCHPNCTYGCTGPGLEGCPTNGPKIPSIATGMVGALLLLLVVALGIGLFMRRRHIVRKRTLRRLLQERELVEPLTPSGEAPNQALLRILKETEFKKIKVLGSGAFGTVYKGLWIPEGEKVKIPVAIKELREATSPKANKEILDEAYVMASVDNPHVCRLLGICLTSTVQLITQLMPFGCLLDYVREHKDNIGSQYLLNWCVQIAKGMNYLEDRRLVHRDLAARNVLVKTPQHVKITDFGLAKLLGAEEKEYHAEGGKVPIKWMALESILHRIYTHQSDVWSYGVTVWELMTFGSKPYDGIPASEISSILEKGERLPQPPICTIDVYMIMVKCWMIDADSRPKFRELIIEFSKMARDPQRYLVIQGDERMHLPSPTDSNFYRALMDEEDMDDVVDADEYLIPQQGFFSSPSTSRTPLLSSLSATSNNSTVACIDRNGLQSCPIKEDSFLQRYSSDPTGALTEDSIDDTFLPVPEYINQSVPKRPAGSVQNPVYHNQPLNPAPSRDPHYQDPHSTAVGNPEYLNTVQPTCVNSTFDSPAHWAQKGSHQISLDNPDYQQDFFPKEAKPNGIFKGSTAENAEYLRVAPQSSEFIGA
Method: as §3, §4

[7] = target: T3, human EGFR exon 20 V769_D770insASV (Homo sapiens, UniProt P00533, INS769ASV); test: EGFR Exon20 ASV insertion cellular phosphorylation inhibition (MSD pEGFR Y1068/total EGFR); assay type: cell-based; details: Ba/F3 EGFR ASV ins cells, 4 h compound, p-EGFR(Y1068)/total EGFR;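 also: electrochemiluminescent readout on an MSD SECTOR Imager, IL3-independent transduced cells in medium with 1% FBS, compound concentration series at 37 °C and 5% CO2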
T3 construct: expressed in transfected cells; host or cells: Ba/F3 (DSMZ ACC-300), lentiviral transduction, puromycin selection, IL3 depletion
T3 sequence (P00533 with tags, fused parts or gaps INS769ASV): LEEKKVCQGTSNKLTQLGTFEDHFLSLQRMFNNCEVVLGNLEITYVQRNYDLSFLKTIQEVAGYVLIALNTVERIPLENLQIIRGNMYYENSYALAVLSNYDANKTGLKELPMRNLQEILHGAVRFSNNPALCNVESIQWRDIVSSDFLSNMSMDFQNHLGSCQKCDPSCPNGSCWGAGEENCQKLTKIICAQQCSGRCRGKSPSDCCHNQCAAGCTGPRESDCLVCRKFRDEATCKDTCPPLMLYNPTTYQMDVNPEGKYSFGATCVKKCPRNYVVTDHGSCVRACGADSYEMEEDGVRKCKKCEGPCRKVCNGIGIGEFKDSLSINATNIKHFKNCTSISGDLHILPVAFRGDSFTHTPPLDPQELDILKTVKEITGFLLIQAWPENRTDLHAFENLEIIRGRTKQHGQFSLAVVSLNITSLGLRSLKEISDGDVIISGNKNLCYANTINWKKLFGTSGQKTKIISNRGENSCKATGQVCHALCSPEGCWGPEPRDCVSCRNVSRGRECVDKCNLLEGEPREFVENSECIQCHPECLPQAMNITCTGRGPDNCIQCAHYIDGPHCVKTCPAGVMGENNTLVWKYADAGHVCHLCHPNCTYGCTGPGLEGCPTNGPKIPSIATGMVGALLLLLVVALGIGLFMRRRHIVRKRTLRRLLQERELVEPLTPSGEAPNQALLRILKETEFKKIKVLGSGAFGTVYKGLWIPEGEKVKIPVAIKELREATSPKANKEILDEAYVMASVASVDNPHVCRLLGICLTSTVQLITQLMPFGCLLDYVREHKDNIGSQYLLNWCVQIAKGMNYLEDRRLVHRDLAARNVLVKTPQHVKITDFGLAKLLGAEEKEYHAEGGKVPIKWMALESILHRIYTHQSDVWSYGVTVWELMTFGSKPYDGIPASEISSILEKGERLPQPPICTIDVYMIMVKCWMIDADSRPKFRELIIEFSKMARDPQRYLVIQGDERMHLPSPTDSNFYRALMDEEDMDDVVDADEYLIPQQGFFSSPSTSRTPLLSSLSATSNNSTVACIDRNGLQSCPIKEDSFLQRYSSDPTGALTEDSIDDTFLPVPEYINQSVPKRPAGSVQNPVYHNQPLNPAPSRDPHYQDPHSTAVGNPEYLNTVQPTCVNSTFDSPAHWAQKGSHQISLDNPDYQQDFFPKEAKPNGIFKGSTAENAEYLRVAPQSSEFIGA

[8] = system: WT EGFR cell line A-431; test: Cell proliferation, WT EGFR A431 (CellTiter-Glo, 72 h); assay type: cell-based; details: A431, 72 h proliferation, read-out: EGFR WT A431 GI50;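 also: proliferation from a luminescent ATP viability signal, expressed as 100 × (treated minus time-zero plate) over (DMSO control minus time-zero plate), cells grown with 10% FBS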
Method: as §2

[9] = system: Her2 exon 20 insertion YVMA transduced NIH-3T3 cell line; test: Cell proliferation, Her2 YVMAins NIH-3T3 (CellTiter-Glo, 72 h); assay type: cell-based; details: Her2 YVMAins cells, 72 h proliferation, read-out: Her2 Exon 20 YVMA insertion GI50;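 also: viable cells quantified by ATP luminescence, growth over a day-zero baseline plate expressed as percent of DMSO control growth, compound dilution series in 10% FBS medium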
Method: as §2

[10] = system: TMD-8 cells; test: BTK (wt) cell proliferation, TMD-8 (CellTiter-Glo, 72 h); assay type: cell-based; details: TMD-8 cells, 72 h, CellTiter-Glo, read-out: BTK WT TMD-8 GI50;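 also: viable cells quantified by ATP-based luminescence, proliferation expressed as percent of DMSO control after subtracting a time-zero baseline plate read at dosing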
Method: as §1

[11] = target: T4, human Her2 exon 20 insertion mutation YVMA (Homo sapiens, UniProt P04626, INS775YVMA); test: Her2 Exon 20 YVMA insertion cellular phosphorylation inhibition (MSD p-Her2 Y1248/total Her2); assay type: cell-based; details: Her2 YVMAins cells, 4 h compound;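 also: lentivirally transduced NIH-3T3 cells in 1% FBS medium, electrochemiluminescent MSD read-out, graded compound concentrations at 37 °C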
T4 construct: expressed in transfected cells; host or cells: NIH-3T3, lentiviral transduction, puromycin selection
T4 sequence (P04626 with tags, fused parts or gaps INS775YVMA): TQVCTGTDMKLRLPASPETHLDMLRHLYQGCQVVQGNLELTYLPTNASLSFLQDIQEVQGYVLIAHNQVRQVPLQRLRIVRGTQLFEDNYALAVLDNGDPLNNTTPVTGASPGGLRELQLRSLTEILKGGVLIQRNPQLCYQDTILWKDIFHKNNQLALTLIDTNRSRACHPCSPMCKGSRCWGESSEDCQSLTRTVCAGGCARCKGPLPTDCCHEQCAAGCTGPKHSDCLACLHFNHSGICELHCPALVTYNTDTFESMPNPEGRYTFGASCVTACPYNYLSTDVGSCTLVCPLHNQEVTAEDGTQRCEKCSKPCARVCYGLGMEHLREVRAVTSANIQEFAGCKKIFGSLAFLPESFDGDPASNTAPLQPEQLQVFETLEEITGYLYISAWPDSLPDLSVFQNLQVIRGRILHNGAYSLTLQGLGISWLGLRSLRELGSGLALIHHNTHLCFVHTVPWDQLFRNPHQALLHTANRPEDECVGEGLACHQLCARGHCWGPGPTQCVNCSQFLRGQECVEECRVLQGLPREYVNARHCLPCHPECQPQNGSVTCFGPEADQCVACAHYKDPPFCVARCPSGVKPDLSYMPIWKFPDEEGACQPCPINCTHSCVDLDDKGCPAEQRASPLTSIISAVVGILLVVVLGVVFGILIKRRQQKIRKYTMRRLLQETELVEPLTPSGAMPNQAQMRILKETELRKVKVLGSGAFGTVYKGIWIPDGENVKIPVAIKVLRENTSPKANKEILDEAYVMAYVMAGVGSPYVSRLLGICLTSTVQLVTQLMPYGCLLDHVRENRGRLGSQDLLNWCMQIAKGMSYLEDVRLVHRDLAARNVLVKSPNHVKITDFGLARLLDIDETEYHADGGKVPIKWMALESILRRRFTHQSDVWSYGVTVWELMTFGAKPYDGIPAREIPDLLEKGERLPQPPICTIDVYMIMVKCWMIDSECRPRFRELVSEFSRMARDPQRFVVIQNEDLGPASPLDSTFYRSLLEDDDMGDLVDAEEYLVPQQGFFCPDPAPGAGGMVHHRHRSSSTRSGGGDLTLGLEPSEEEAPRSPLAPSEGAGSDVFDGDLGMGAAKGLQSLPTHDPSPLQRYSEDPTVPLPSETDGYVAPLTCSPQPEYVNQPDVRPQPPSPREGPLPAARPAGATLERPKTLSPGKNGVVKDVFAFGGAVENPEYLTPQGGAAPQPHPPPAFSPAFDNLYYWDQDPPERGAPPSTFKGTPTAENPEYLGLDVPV
Method: The resulting cell line expressed phosphorylated Her2 protein and its proliferation depended on the mutation gene, which could be used for in vitro PD and anti-proliferation assays.
as §3, §4

[12] = system: OCI-LY-10 cells; test: BTK (wt) cell proliferation, OCI-LY-10 (CellTiter-Glo, 72 h); assay type: cell-based; details: OCI-LY-10 cells, 72 h, CellTiter-Glo, read-out: BTK WT OCI-LY-10 GI50;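 also: viable cells quantified via cellular ATP luminescence, proliferation given as percent of DMSO control after subtracting a duplicate plate read at time of dosing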
[13] = system: rat hepatocytes; test: In vitro rat hepatocytes clearance assay; details: male rat hepatocytes, 1 µM-range incubation up to 100 min
[14] = system: Ri-1 cells; test: BTK (wt) cell proliferation, Ri-1 (CellTiter-Glo, 72 h); assay type: cell-based; details: Ri-1 cells, 72 h, CellTiter-Glo, read-out: BTK WT Ri-1 GI50;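 also: viable cells quantified as cellular ATP luminescence, proliferation normalized to a time-zero plate and the DMSO control, compounds tested across a dilution series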
[15] = system: Ba/F3 EGFR NPH ins cells; test: Cell proliferation, Ba/F3 EGFR NPH ins (CellTiter-Glo, 72 h); assay type: cell-based; details: Ba/F3 EGFR NPH ins, 72 h proliferation, read-out: EGFR Exon20 NPH insertion GI50;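 also: IL3-independent cells carrying constitutively phosphorylated EGFR, compound dilution series, viable cells quantified by ATP luminescence, growth relative to DMSO wells after subtracting pre-dosing (day 0) baseline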
[16] = target: T5, human EGFR exon 20 H773_V774insNPH (Homo sapiens, UniProt P00533, INS773NPH); test: EGFR Exon20 NPH insertion cellular phosphorylation inhibition (MSD pEGFR Y1068/total EGFR); assay type: cell-based; details: Ba/F3 EGFR NPH ins cells, 4 h compound, p-EGFR(Y1068)/total EGFR;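 also: IL3-independent Ba/F3 cells with constitutively phosphorylated EGFR, compound exposure at 37 °C under 5% CO2, electrochemiluminescent MSD measurement of the p-EGFR to total EGFR ratio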
T5 construct: host or cells: Ba/F3
T5 sequence (P00533 with tags, fused parts or gaps INS773NPH): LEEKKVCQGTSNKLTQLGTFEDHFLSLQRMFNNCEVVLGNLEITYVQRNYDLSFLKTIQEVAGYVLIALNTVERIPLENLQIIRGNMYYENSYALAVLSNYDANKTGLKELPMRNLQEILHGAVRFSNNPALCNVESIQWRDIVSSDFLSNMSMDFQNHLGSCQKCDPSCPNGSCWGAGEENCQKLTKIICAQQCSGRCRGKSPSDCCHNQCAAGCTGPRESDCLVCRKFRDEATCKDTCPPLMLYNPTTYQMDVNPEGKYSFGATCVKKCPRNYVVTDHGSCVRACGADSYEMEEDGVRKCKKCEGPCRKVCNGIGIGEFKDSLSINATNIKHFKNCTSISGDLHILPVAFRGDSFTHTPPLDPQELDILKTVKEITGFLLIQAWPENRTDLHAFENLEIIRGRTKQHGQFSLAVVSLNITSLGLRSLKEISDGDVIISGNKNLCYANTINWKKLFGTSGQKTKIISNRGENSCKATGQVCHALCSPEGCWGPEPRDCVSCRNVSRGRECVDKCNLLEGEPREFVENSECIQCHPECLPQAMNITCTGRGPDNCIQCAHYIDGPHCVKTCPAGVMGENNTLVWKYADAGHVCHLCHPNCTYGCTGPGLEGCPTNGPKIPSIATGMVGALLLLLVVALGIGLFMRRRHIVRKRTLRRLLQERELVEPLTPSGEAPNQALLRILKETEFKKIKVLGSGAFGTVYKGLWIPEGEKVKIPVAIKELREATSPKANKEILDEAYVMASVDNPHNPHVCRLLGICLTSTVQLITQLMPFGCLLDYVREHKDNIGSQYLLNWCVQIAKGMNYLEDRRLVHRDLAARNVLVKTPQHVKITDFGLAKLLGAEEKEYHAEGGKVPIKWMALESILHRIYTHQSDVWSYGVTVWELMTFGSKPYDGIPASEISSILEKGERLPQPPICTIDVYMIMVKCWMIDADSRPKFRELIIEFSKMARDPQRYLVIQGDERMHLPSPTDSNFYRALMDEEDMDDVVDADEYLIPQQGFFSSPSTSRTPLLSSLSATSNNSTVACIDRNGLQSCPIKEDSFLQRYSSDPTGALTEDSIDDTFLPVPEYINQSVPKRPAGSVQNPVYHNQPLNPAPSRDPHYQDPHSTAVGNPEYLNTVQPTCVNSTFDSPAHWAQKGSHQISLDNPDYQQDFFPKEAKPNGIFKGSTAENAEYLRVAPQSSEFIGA

[17] = target: T6, BTK (Homo sapiens, UniProt Q06187); test: BTK target site occupancy ELISA (PBMC); assay type: cell-based; details: BTK receptor occupancy
Method: (§5) An enzyme-linked immunosorbent assay (ELISA) method for the detection of free uninhibited Btk in mouse and human lysates. Human or mouse whole blood were incubated with compound for 2 hour at 37° C. Whole blood were lysed in ice-cold lysis buffer containing 50 mM Tris-HCl, pH 7.5, 150 mM NaCl, 1 mM EDTA,1% Triton X-100. […] Samples were transferred to a streptavidin-coated 96-well ELISA plate and mixed while shaking for 1 hour at room temperature. The α-Btk antibody (1:500; clone number D3H5, Cell signaling Technology, Danvers, MA, USA) was then added to the well and incubated for 1 hour at room temperature. After wash, goat α-rabbit-FW (1:5000 dilution in PBS+ 0.05% Tween-20 + 1% BSA) was added to each well and incubated for 1 h at room temperature. The ELISA was developed with addition of tetramethyl benzidine (TMB) followed by Stop Solution and read at OD 450 nm.

[18] = target: T7, Phospho-BTK (Tyr223) (Homo sapiens, UniProt Q06187); test: p-BTK assay in Ramos cells (HTRF Phospho-BTK Tyr223); assay type: cell-based; details: pervanadate stimulated, read-out: p-BTK (Romas) IC50
T7 construct: endogenous in cells; host or cells: Ramos
Method: The assay plates were then incubated for 30 minutes at 37° C., 5% CO2. 300 uM Per vanadate (3X) was added to each well and the assay plates were again incubated for 60 minutes at 37° C., 5% CO2. Phospho-BTK (Tyr223) is detected using the HTRF® reagents (Cisbio) according to the manufacturer’s one-plate assay protocol.

[19] = target: T6, BTK; test: BTK target site occupancy ELISA (Ramos); assay type: cell-based; parameters: endogenous in cells; host or cells: Ramos; details: BTK receptor occupancy, read-out: Occupancy (Romas) IC50
Method: as §5

[20] = In vitro human hepatocytes clearance assay; details: both, human, cryopreserved human hepatocytes (suspension), human hepatocytes Clint (µL/min/10^6cells), mixed gender human hepatocytes, incubation up to 100 min
[21] = In vitro rat hepatocytes clearance assay; details: male, rat, cryopreserved rat hepatocytes (suspension), rat hepatocytes Clint (µL/min/10^6cells), 1 µM-range incubation up to 100 min
[22] = Rat pharmacokinetic study after oral administration (SOA); assay type: in vivo; details: male Han Wistar rats
Method: For rat pharmacokinetic studies, six male Han Wistar rats were purchased from Beijing Vital River and orally dosed with the test compound at 10 mg/kg in 0.5% Tween-80 and 0.5% hydroxypropyl methylcellulose (v/w). At, 0.5, 1, 2, 4, 7 and 16 hours post-dose, blood samples (>100 µL/time point) were collected from portal vein and via cardiac puncture into separate K2EDTA […] tubes, and then immediately centrifuged at 1500 g, 5 min at 4° C. to separate plasma. The plasma samples were deproteinized with 4 fold acetonitrile (including internal standard), vortex for 10 min and centrifuges for 10 minutes at 4000 g at 4° C.. The supernatantswere submitted to LC/MS/MS (API 5500, Applied Biosystems, Foster City) analysis. Two sets of standard curves were run at the beginning and end of each batch from plasma sample analysis.
Compound absorption was measured by portal vein AUC (AUCHPV) and systemic AUC (AUCSYS) observed maximum concentration (Cmax) in rats after oral administration. Dose is the actual dose used in SOA study. Find below in Table 9 data for exemplary tested compounds.

IC50 [5] [nM] | IC50 [6] [nM] | IC50 [7] [nM] | IC50 [11] [nM] | IC50 [16] [nM] | IC50 [17] [nM] | IC50 [18] [nM] | IC50 [19] [nM] | hepatocyte CLint at 1 µM [20] [µL/min/1e6 cells] | SMILES | human hepatocytes Clint (µL/min/10^6cells) [1] [µL/min/10^6cells] | GI50 [2] [nM] | GI50 [3] [nM] | GI50 [4] [nM] | GI50 [8] [nM] | GI50 [9] [nM] | GI50 [10] [nM] | GI50 [12] [nM] | rat hepatocytes Clint (µL/min/10^6cells) [13] [µL/min/10^6cells] | GI50 [14] [nM] | GI50 [15] [nM] | other results
1.7 | 303 | 50.8 | 21.5 | 44.8 | 1.7 | 1.6 | 0.49 | – | C=CC(=O)Nc1cc(Nc2nccc(Nc3cc(Cl)c(F)cc3C(C)(O)CC)n2)c(OC)cc1N1CC[C@@H](N(C)C)C1 (single isomer, unassigned) [Compound 77, N-(5-(4-(5-chloro-4-fluoro-2-((R)-2-hydroxybutan-2-yl)phenylamino)pyrimidin-2-ylamino)-2-((R)-3-(dimethylamino)pyrrolidin-1-yl)-4-methoxyphenyl) acrylamide or N-(5-(4-(5-chloro-4-fluoro-2-((S)-2-hydroxybutan-2-yl)phenylamino)pyrimidin-2-ylamino)-2-((R)-3-(dimethylamino)pyrrolidin-l-yl)-4-methoxyphenyl) acrylamide] | 7.87 | 1750 | 3.6 | 102 | 32.4 | 109 | 1.19 | 1.23 | 15.8 | 1.55 | 81.9 | –
1.1 | 139 | 25.8 | 10.9 | 30 | 3.8 | 3.8 | 3.1 | 4.04 | C=CC(=O)Nc1cc(Nc2nccc(Nc3cc(Cl)c(F)cc3C(C)(C)O)n2)c(OC)cc1N1CC[C@@H]1CN(C)C [Compound 53, (R)-N-(5-(4-(5-chloro-4-fluoro-2-(2-hydroxypropan-2-yl)phenylamino)pyrimidin-2-ylamino)-2-(2-((dimethylamino)methyl)azetidin-1-yl)-4-methoxyphenyl)acrylamide] | – | – | – | – | – | – | – | – | – | – | – | GI50 ([2]; Homo sapiens, DB): > 3000 nM; GI50 ([3]; Homo sapiens, NCI-H1975, 72 h): 4 nM; GI50 ([4]; Ba/F3 EGFR, 72 h): 84 nM; GI50 ([8]; Homo sapiens, A-431, 72 h): 71.8 nM; GI50 ([9]; Mus musculus, NIH3T3, 72 h): 137 nM; GI50 ([10]; Homo sapiens, TMD8, 72 h): 6.39 nM; GI50 ([12]; Homo sapiens, OCI-Ly10, 72 h): 9.16 nM; hepatocyte CLint at 1 µM [21]: 12.3 µL/min/1e6 cells; SOA DN AUCSYS (ng·h/mL)/(mg/kg) ([22]; dose-normalised systemic AUC): 116 (ng·h/mL)/(mg/kg); Cmax ([22]; rat, plasma, nominal 10 mg/kg (actual dose in c1)): 195 ng/mL; GI50 ([14]; Ri-1, 72 h): 17.1 nM; GI50 ([15]; Ba/F3 EGFR, 72 h): 89.3 nM
4.5 | 350 | 36.8 | 51.8 | 95 | 5.7 | 5.8 | 3.4 | 2.81 | C=CC(=O)Nc1cc(Nc2nccc(Nc3cc(Cl)c(F)cc3C(C)(C)O)n2)c(OC)cc1N1CC[C@@H](NC)C1 [Compound 80, (R)-N-(5-(4-(5-chloro-4-fluoro-2-(2-hydroxypropan-2-yl)phenylamino)pyrimidin-2-ylamino)-4-methoxy-2-(3-(methylamino)pyrrolidin-1-yl)phenyl)acr ylamide TFA salt] | – | – | – | – | – | – | – | – | – | – | – | GI50 ([2]; Homo sapiens, DB): > 3000 nM; GI50 ([3]; Homo sapiens, NCI-H1975, 72 h): 14.8 nM; GI50 ([4]; Ba/F3 EGFR, 72 h): 177 nM; GI50 ([8]; Homo sapiens, A-431, 72 h): 81.5 nM; GI50 ([9]; Mus musculus, NIH3T3, 72 h): 467 nM; GI50 ([10]; Homo sapiens, TMD8, 72 h): 40.2 nM; GI50 ([12]; Homo sapiens, OCI-Ly10, 72 h): 23.7 nM; hepatocyte CLint at 1 µM [21]: 15.5 µL/min/1e6 cells; GI50 ([14]; Ri-1, 72 h): > 3000 nM; GI50 ([15]; Ba/F3 EGFR, 72 h): 220 nM

SMILES | IC50 [5] [nM] | IC50 [6] [nM] | IC50 [7] [nM] | IC50 [11] [nM] | IC50 [16] [nM] | IC50 [17] [nM] | IC50 [18] [nM] | IC50 [19] [nM] | hepatocyte CLint at 1 µM [20] [µL/min/1e6 cells] | human hepatocytes Clint (µL/min/10^6cells) [1] [µL/min/10^6cells] | GI50 [2] [nM] | GI50 [3] [nM] | GI50 [4] [nM] | GI50 [8] [nM] | GI50 [9] [nM] | GI50 [10] [nM] | GI50 [12] [nM] | rat hepatocytes Clint (µL/min/10^6cells) [13] [µL/min/10^6cells] | GI50 [14] [nM] | GI50 [15] [nM] | other results
C=CC(=O)Nc1cc(Nc2ncnc(Nc3cc(Cl)c(F)cc3C(C)(O)CC)n2)c(OC)cc1N1CC[C@@H](N(C)C)C1 (single isomer, unassigned) [Compound 70, N-(5-(4-(5-chloro-4-fluoro-2-((R)-2-hydroxybutan-2-yl)phenylamino)-1,3,5-triazin-2-ylamino)-2-((R)-3-(dimethylamino)pyrrolidin-1-yl)-4-methoxyphenyl)acrylamide or N-(5-(4-(5-chloro-4-fluoro-2-((S)-2-hydroxybutan-2-yl)phenylamino)-1,3,5-triazin-2-ylamino)-2-((R)-3-(dimethylamino)pyrrolidin-1-yl)-4-methoxyphenyl)acrylamide] | 1.5 | 71.2 | 22.3 | 15.7 | 67.5 | – | – | – | – | 3.69 | > 3000 | 9.1 | 65.4 | 15.4 | 72 | 10.2 | 22.2 | 12.9 | 88.9 | 65.8 | –
